{"source": "paper PMC10745882", "about": "“Investigation of Drug-Interaction Potential for Arthritis Dietary Supplements: Chondroitin Sulfate, Glucosamine, and Methylsulfonylmethane” (Molecules, 2023)", "key": {"CYP2C9 [1]": {"target": "T1, CYP2C9 (Homo sapiens, UniProt P11712)", "T1 construct": "Pooled human liver microsomes were purchased from BD Gentest; tissue BD Gentest; host or cells: pooled human liver microsomes", "T1 sequence (P11712 whole entry)": "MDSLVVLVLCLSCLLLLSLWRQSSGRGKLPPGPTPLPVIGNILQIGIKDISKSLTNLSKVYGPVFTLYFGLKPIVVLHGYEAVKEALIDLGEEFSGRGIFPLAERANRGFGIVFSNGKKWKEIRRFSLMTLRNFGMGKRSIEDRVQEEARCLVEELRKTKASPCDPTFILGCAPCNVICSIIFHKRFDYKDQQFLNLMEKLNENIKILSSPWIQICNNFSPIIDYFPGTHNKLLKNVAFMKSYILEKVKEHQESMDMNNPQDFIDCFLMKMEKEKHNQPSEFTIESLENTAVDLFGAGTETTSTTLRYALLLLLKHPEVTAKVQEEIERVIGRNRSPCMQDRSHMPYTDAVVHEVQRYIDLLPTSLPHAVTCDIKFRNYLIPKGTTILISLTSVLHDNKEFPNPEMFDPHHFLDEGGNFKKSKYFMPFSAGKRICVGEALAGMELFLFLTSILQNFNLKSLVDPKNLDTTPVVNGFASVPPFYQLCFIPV", "assay": "CYP inhibition assay in human liver microsomes (LC-MS/MS cocktail), diclofenac to 4-OH-diclofenac", "format": "in vitro ADME", "procedure": "For the experimental method, the reference method was used. Briefly, incubation mixtures were composed of 0.5 mg/mL human liver microsomes; varying concentrations of CS in DW (0.1, 0.3, 1, 3, 10, 30, 100, and 200 µM) or MSM in DW (0.1, 0.3, 1, 3, 10, 30, 100, 300, and 1000 µM) or GCS in DMSO (0.1, 0.3, 1, 3, 10, 30, 100, 300, and 1000 µM); a substrate mixture in DMSO (40 µM phenacetin for CYP1A2; 2.5 µM coumarin for CYP2A6; 80 µM bupropion for CYP2B6; 10 µM diclofenac for CYP2C9; 80 µM [±]-mephenytoin for CYP2C19; 5 µM dextromethorphan for CYP2D6; 2.5 µM midazolam and 30 µM testosterone for CYP3A4); and an NADPH generating system (NGS; 0.1 M glucose-6-phosphate, 10 mg/mL β-NADP^+, and 1 U/mL glucose-6-phosphate dehydrogenase) in a total volume of 200 µL potassium phosphate buffer (0.1 M, pH 7.4). The reaction mixture, excluding NGS, underwent pre-incubation at 37 °C for 5 min, followed by further incubation with NGS for 30 min in a water bath. Well-established selective CYP inhibitors were employed as positive controls (40 µM ketoconazole for CYP3A4, 50 µM furafyllin for CYP1A2, 10 µM quinidine for CYP2D6, 125 µM ticlopidine for CYP2C19 and CYP2B6, 10 µM 8-methoxsalen for CYP2A6, and 10 µM sulfaphenazole for CYP2C9). Post incubation, the reaction was halted by adding 50 µL ice-cold 1% formic acid acetonitrile. After centrifugation at 13,200 rpm for 5 min, the supernatant was collected from the sample and subjected to analysis via an LC-MS/MS system. All experiments were performed in triplicate.\nFor the experimental method, the reference method was used. The LC-MS/MS system utilized in this study consisted of an Agilent 1260 binary pump HPLC system coupled with the Agilent 6460 Triple Quadrupole mass spectrometer (Agilent Technologies, Santa Clara, CA, USA), featuring an electrospray ionization source. Chromatographic separation was achieved using a Fortis C8 column (2.1 × 100 mm, 5.0 µm; Fortis Technologies Ltd., Neston, UK). The HPLC mobile phases comprised (A) 0.1% formic acid and (B) 0.1% formic acid in 90% acetonitrile. A gradient elution method was employed with an initial solvent B concentration of 15% and a flow rate of 0.25 mL/min. […] The total run time was 11.0 min, and the injection volume was 5 µL. Mass detection was conducted in the positive ion mode using multiple reaction monitoring (MRM). Specific MRM transitions for each analyte are detailed in Table S4."}, "CYP2C9 [2]": {"system": "CYP2C9", "design": "method as in PMID 34821124, PMID 29488228", "conditions": "previous studies; cited from earlier work"}, "[3]": {"design": "method as in PMID 25417766", "conditions": "rats; 1:4 (paracetamol:GCS) ratio; cited from earlier work"}, "CYP2D6": {"target": "T2, CYP2D6 (Homo sapiens, UniProt P10635)", "T2 construct": "Pooled human liver microsomes were purchased from BD Gentest; tissue BD Gentest; host or cells: pooled human liver microsomes", "T2 sequence (P10635 whole entry)": "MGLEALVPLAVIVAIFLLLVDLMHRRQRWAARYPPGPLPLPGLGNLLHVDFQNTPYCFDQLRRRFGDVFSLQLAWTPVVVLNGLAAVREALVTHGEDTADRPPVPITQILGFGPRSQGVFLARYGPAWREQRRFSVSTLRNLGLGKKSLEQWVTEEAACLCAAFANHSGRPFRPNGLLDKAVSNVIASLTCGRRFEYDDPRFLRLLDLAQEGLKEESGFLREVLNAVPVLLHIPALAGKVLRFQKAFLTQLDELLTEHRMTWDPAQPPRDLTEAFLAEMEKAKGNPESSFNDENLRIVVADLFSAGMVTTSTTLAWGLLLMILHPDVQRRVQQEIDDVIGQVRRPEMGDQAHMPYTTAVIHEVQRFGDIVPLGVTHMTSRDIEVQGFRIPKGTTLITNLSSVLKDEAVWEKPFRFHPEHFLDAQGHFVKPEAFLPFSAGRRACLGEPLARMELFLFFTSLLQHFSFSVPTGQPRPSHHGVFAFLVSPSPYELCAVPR", "design": "method as in PMID 34821124, PMID 29488228", "conditions": "previous studies; cited from earlier work"}, "[4]": {"design": "method as in doi:10.4172/2155-9600.1000748, PMID 16168682, PMID 19912983", "conditions": "common daily dose 1500 mg/day; cited from earlier work"}}, "data": [{"compound": "N[C@H]1C(O)O[C@H](CO)[C@@H](O)[C@@H]1O", "note": "(stereo partly shown) [GCS, glucosamine]", "values": [{"measurement": "Remaining Activities (% of Control, n = 3)", "setting": "CYP2C9 [1]; test substance 0.3 μM", "result": "115.5 ± 15.2 % of Control"}, {"measurement": "Remaining Activities (% of Control, n = 3)", "setting": "CYP2C9 [1]; test substance 1 μM", "result": "108.7 ± 1.7 % of Control"}, {"measurement": "Remaining Activities (% of Control, n = 3)", "setting": "CYP2C9 [1]; test substance 3 μM", "result": "109.2 ± 2.4 % of Control"}, {"measurement": "Remaining Activities (% of Control, n = 3)", "setting": "CYP2C9 [1]; test substance 10 μM", "result": "104.0 ± 2.3 % of Control"}, {"measurement": "Remaining Activities (% of Control, n = 3)", "setting": "CYP2C9 [1]; test substance 30 μM", "result": "105.8 ± 2.7 % of Control"}, {"measurement": "Remaining Activities (% of Control, n = 3)", "setting": "CYP2C9 [1]; test substance 100 μM", "result": "101.2 ± 4.8 % of Control"}, {"measurement": "Remaining Activities (% of Control, n = 3)", "setting": "CYP2C9 [1]; test substance 300 μM", "result": "97.2 ± 2.8 % of Control"}, {"measurement": "Remaining Activities (% of Control, n = 3)", "setting": "CYP2C9 [1]; test substance 1000 μM", "result": "91.1 ± 10.1 % of Control"}, {"measurement": "inhibitory effects on CYP2C9", "setting": "CYP2C9 [2]", "result": "no inhibitory effects"}, {"measurement": "paracetamol's AUC when co-administered with GCS", "setting": "[3]", "result": "increase"}, {"measurement": "paracetamol's maximum plasma concentration when co-administered with GCS", "setting": "[3]", "result": "increase"}, {"measurement": "inhibitory effects on CYP2D6", "setting": "CYP2D6", "result": "no inhibitory effects"}, {"measurement": "maximum plasma concentrations", "setting": "[4]", "result": "~9", "unit": "µM"}]}]}
